Test results: US20260265329A1, “POLYPEPTIDE AND DERIVATIVE THEREOF, COMPOSITION, AND USE THEREOF” (HANGZHOU SCIWIND BIOSCIENCES CO., LTD., priority 2023, published 2026)
Starred links: 1 amine or outer side, 2 acyl side, 3 side chain; linkers in the order of their positions; H or OH if unused. Non-standard residues stand in square brackets, D forms with d. Residues, ends and D or L forms follow the SMILES beside them. *: point of attachment. C20 diacid = O=C(O)CCCCCCCCCCCCCCCCCCC(=O)*; γGlu = O=C(O)[C@H](CCC(=O)[*:2])N[*:1]; βAsp = O=C(O)[C@H](CC(=O)[*:2])N[*:1]; Hyp = O=C(O)[C@@H]1C[C@@H](O)CN1; AEEA = NCCOCCOCC(=O)O

Biological target: T1, human amylin receptors (Homo sapiens, UniProt O60896+P30988)
T1 construct: host or cells: CHO-K1/Ga15/AMY3 cells, further stably transfected with a CRE-luciferase plasmid
T1 sequence (P30988 25-474): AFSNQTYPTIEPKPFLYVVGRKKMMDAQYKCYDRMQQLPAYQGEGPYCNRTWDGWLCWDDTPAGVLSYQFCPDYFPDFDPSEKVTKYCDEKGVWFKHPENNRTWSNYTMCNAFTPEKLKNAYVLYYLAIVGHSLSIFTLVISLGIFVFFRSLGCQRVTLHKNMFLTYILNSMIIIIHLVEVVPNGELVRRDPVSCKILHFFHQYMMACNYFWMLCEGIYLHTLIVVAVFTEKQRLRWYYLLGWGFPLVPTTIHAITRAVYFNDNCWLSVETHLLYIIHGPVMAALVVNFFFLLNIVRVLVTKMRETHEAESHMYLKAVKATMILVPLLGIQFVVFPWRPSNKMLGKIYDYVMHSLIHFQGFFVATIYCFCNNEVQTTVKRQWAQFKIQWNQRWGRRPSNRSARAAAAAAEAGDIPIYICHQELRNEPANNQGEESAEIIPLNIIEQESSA
T1 sequence (O60896 24-148 partner): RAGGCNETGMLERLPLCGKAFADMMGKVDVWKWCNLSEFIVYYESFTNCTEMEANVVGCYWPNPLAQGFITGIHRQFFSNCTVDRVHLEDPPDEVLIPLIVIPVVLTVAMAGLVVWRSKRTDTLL
Test: Luciferase assay in stably transfected amylin receptor/CRE-luc CHO cell line
Type: cell-based
Conditions: for Relative activity: EC50 ratio of Cagrilintide to the compound, Cagrilintide 100%; for EC50: amylin receptor/CRE-luc CHO cells, 24 hours incubation, luminescence

Row | Relative activity [%] | EC50 [nM] | SMILES
1 | 78 | 0.034 | CC[C@H](C)[C@H](NC(=O)[C@H](CC(=O)O)NC(=O)[C@H](CCCNC(=N)N)NC(=O)[C@H](CC(=O)O)NC(=O)[C@H](CCCNC(=N)N)NC(=O)[C@H](CC(=O)O)NC(=O)[C@@H](NC(=O)[C@H](Cc1ccccc1)NC(=O)[C@H](Cc1c[nH]cn1)NC(=O)[C@H](CCCNC(=N)N)NC(=O)[C@H](CC(C)C)NC(=O)[C@H](Cc1ccccc1)NC(=O)[C@H](CC(=O)O)NC(=O)[C@H](C)NC(=O)[C@H](CC(C)C)NC(=O)[C@H](CCCNC(=N)N)NC(=O)[C@H](CCC(N)=O)NC(=O)[C@@H](NC(=O)[C@H](C)NC(=O)[C@H](C)NC(=O)[C@@H](NC(=O)[C@H](CO)NC(=O)[C@H](CC(C)C)NC(=O)[C@H](CCC(N)=O)NC(=O)[C@H](CO)NC(=O)[C@H](C)NC(=O)[C@H](CC(=O)O)NC(=O)CCCCCCCCCCCCCCCCCCC(=O)O)[C@@H](C)O)[C@@H](C)O)[C@@H](C)O)C(=O)N[C@@H](CC(C)C)C(=O)N1CCC[C@H]1C(=O)N1CCC[C@H]1C(=O)N[C@H](C(=O)N[C@@H](CC(N)=O)C(=O)N[C@H](C(=O)NCC(=O)N[C@@H](CO)C(=O)N[C@@H](CC(N)=O)C(=O)N[C@H](C(=O)N1CCC[C@H]1C(N)=O)[C@@H](C)O)C(C)C)[C@@H](C)O [M13] ({C20 diacid}-DASQLSTAATQRLADFLRHFTDRDRDILPPTNVGSNTP-NH2)
2 | 110 |  | CC[C@H](C)[C@H](NC(=O)[C@H](CC(=O)O)NC(=O)[C@H](CCCNC(=N)N)NC(=O)[C@H](CC(=O)O)NC(=O)[C@H](CCCNC(=N)N)NC(=O)[C@H](CC(=O)O)NC(=O)[C@@H](NC(=O)[C@H](Cc1ccccc1)NC(=O)[C@H](Cc1c[nH]cn1)NC(=O)[C@H](CCCNC(=N)N)NC(=O)[C@H](CC(C)C)NC(=O)[C@H](Cc1ccccc1)NC(=O)[C@H](CC(=O)O)NC(=O)[C@H](C)NC(=O)[C@H](CC(C)C)NC(=O)[C@H](CCCNC(=N)N)NC(=O)[C@H](CCC(N)=O)NC(=O)[C@@H](NC(=O)[C@H](C)NC(=O)[C@H](C)NC(=O)[C@@H](NC(=O)[C@H](CO)NC(=O)[C@H](CC(C)C)NC(=O)[C@H](CCC(N)=O)NC(=O)[C@H](CO)NC(=O)[C@H](C)NC(=O)COCCOCCNC(=O)COCCOCCNC(=O)C[C@H](NC(=O)CCCCCCCCCCCCCCCCCCC(=O)O)C(=O)O)[C@@H](C)O)[C@@H](C)O)[C@@H](C)O)C(=O)N[C@@H](CC(C)C)C(=O)N1CCC[C@H]1C(=O)N1CCC[C@H]1C(=O)N[C@H](C(=O)N[C@@H](CC(N)=O)C(=O)N[C@H](C(=O)NCC(=O)N[C@@H](CO)C(=O)N[C@@H](CC(N)=O)C(=O)N[C@H](C(=O)N1CCC[C@H]1C(N)=O)[C@@H](C)O)C(C)C)[C@@H](C)O [M18] ({C20 diacid-βAsp-AEEA-AEEA}-ASQLSTAATQRLADFLRHFTDRDRDILPPTNVGSNTP-NH2)
3 | 25 |  | CC[C@H](C)[C@H](NC(=O)[C@H](CC(=O)O)NC(=O)[C@H](CCCNC(=N)N)NC(=O)[C@H](CC(=O)O)NC(=O)[C@H](CCCNC(=N)N)NC(=O)[C@H](CC(=O)O)NC(=O)[C@@H](NC(=O)[C@H](Cc1ccccc1)NC(=O)[C@H](Cc1c[nH]cn1)NC(=O)[C@H](CCCNC(=N)N)NC(=O)[C@H](CC(C)C)NC(=O)[C@H](Cc1ccccc1)NC(=O)[C@H](CC(=O)O)NC(=O)[C@H](C)NC(=O)[C@H](CC(C)C)NC(=O)[C@H](CCCNC(=N)N)NC(=O)[C@H](CCC(N)=O)NC(=O)[C@@H](NC(=O)[C@H](C)NC(=O)[C@H](C)NC(=O)[C@@H](NC(=O)[C@H](CO)NC(=O)[C@H](CC(C)C)NC(=O)[C@H](CCC(N)=O)NC(=O)[C@H](CO)NC(=O)[C@H](C)NC(=O)COCCOCCNC(=O)COCCOCCNC(=O)COCCOCCNC(=O)COCCOCCNC(=O)COCCOCCNC(=O)COCCOCCNC(=O)CC[C@H](NC(=O)CCCCCCCCCCCCCCCCCCC(=O)O)C(=O)O)[C@@H](C)O)[C@@H](C)O)[C@@H](C)O)C(=O)N[C@@H](CC(C)C)C(=O)N1CCC[C@H]1C(=O)N1CCC[C@H]1C(=O)N[C@H](C(=O)N[C@@H](CC(N)=O)C(=O)N[C@H](C(=O)NCC(=O)N[C@@H](CO)C(=O)N[C@@H](CC(N)=O)C(=O)N[C@H](C(=O)N1CCC[C@H]1C(N)=O)[C@@H](C)O)C(C)C)[C@@H](C)O [M25] ({C20 diacid-γGlu-AEEA-AEEA-AEEA-AEEA-AEEA-AEEA}-ASQLSTAATQRLADFLRHFTDRDRDILPPTNVGSNTP-NH2)
4 | 37 | 0.145 | CC[C@H](C)[C@H](NC(=O)[C@@H]1CCCN1C(=O)[C@H](CCCCN)NC(=O)[C@H](CC(C)C)NC(=O)[C@H](CC(N)=O)NC(=O)[C@H](CC(N)=O)NC(=O)[C@H](CO)NC(=O)[C@H](CO)NC(=O)[C@H](Cc1c[nH]cn1)NC(=O)[C@H](CCCNC(=N)N)NC(=O)[C@H](CC(C)C)NC(=O)[C@H](Cc1ccccc1)NC(=O)[C@H](CC(=O)O)NC(=O)[C@H](C)NC(=O)[C@H](CC(C)C)NC(=O)[C@H](CCCNC(=N)N)NC(=O)[C@H](CCC(N)=O)NC(=O)[C@@H](NC(=O)[C@H](C)NC(=O)[C@H](C)NC(=O)[C@@H](NC(=O)[C@H](CO)NC(=O)[C@H](CC(C)C)NC(=O)[C@H](CCC(N)=O)NC(=O)[C@H](CO)NC(=O)[C@H](C)NC(=O)COCCOCCNC(=O)COCCOCCNC(=O)C[C@H](NC(=O)CCCCCCCCCCCCCCCCCCC(=O)O)C(=O)O)[C@@H](C)O)[C@@H](C)O)C(=O)N[C@@H](CC(C)C)C(=O)N1CCC[C@H]1C(=O)N1CCC[C@H]1C(=O)N[C@H](C(=O)N[C@@H](CC(N)=O)C(=O)N[C@H](C(=O)NCC(=O)N[C@@H](CO)C(=O)N[C@@H](CC(N)=O)C(=O)N[C@H](C(=O)N1C[C@H](O)C[C@H]1C(N)=O)[C@@H](C)O)C(C)C)[C@@H](C)O [M33] ({C20 diacid-βAsp-AEEA-AEEA}-ASQLSTAATQRLADFLRHSSNNLKPILPPTNVGSNT[Hyp]-NH2)
5 | 80 | 0.036 | CC[C@H](C)[C@H](NC(=O)[C@H](CC(=O)O)NC(=O)[C@H](CCCNC(=N)N)NC(=O)[C@H](CC(=O)O)NC(=O)[C@H](CCCNC(=N)N)NC(=O)[C@H](CC(=O)O)NC(=O)[C@@H](NC(=O)[C@H](Cc1ccccc1)NC(=O)[C@H](Cc1c[nH]cn1)NC(=O)[C@H](CCCNC(=N)N)NC(=O)[C@H](CC(C)C)NC(=O)[C@H](Cc1ccccc1)NC(=O)[C@H](CC(=O)O)NC(=O)[C@H](C)NC(=O)[C@H](CC(C)C)NC(=O)[C@H](CCCNC(=N)N)NC(=O)[C@H](CCC(N)=O)NC(=O)[C@@H](NC(=O)[C@H](C)NC(=O)[C@H](C)NC(=O)[C@@H](NC(=O)[C@H](CO)NC(=O)[C@H](CC(C)C)NC(=O)[C@H](CCC(N)=O)NC(=O)[C@H](CO)NC(=O)[C@H](C)NC(=O)COCCOCCNC(=O)COCCOCCNC(=O)[C@H](CC(=O)O)NC(=O)CCCCCCCCCCCCCCCCCCC(=O)O)[C@@H](C)O)[C@@H](C)O)[C@@H](C)O)C(=O)N[C@@H](CC(C)C)C(=O)N1CCC[C@H]1C(=O)N1CCC[C@H]1C(=O)N[C@H](C(=O)N[C@@H](CC(N)=O)C(=O)N[C@H](C(=O)NCC(=O)N[C@@H](CO)C(=O)N[C@@H](CC(N)=O)C(=O)N[C@H](C(=O)N1CCC[C@H]1C(N)=O)[C@@H](C)O)C(C)C)[C@@H](C)O [M19] ({C20 diacid}-D[AEEA][AEEA]ASQLSTAATQRLADFLRHFTDRDRDILPPTNVGSNTP-NH2)
6 | 49 | 0.053 | CC[C@H](C)[C@H](NC(=O)[C@@H]1CCCN1C(=O)[C@H](CCCCN)NC(=O)[C@H](CC(C)C)NC(=O)[C@H](CC(N)=O)NC(=O)[C@H](CC(N)=O)NC(=O)[C@H](CO)NC(=O)[C@H](CO)NC(=O)[C@H](Cc1c[nH]cn1)NC(=O)[C@H](CCCNC(=N)N)NC(=O)[C@H](CC(C)C)NC(=O)[C@H](Cc1ccccc1)NC(=O)[C@H](CC(=O)O)NC(=O)[C@H](C)NC(=O)[C@H](CC(C)C)NC(=O)[C@H](CCCNC(=N)N)NC(=O)CNC(=O)[C@H](CC(C)C)NC(=O)[C@H](C)NC(=O)[C@H](C)NC(=O)[C@@H](NC(=O)[C@H](CO)NC(=O)[C@H](CC(C)C)NC(=O)[C@H](CCC(=O)O)NC(=O)[C@H](CO)NC(=O)[C@H](C)NC(=O)CC[C@H](NC(=O)CCCCCCCCCCCCCCCCCCC(=O)O)C(=O)O)[C@@H](C)O)C(=O)N[C@@H](CC(C)C)C(=O)N1CCC[C@H]1C(=O)N1CCC[C@H]1C(=O)N[C@H](C(=O)N[C@@H](CC(N)=O)C(=O)N[C@H](C(=O)NCC(=O)N[C@@H](CO)C(=O)N[C@@H](CC(N)=O)C(=O)N[C@H](C(=O)N1C[C@H](O)C[C@H]1C(N)=O)[C@@H](C)O)C(C)C)[C@@H](C)O [M1] ({C20 diacid-γGlu}-ASELSTAALGRLADFLRHSSNNLKPILPPTNVGSNT[Hyp]-NH2)
